Measured values reported in a melting point compilation (Tetko et al.; mined from patent text by program, amines drawn as free bases though some values may be those of a salt).

Row | Compound | melting point
1 | CS(=O)(=O)Oc1ccc([N+](=O)[O-])c(O)c1 | 123 to 124 °C
2 | Nc1nc(S(=O)(=O)Cl)nn1C(=O)Oc1ccccc1 | 164 °C
3 | CNc1cccc(S(N)(=O)=O)n1 | 124 to 126 °C
4 | CCCCCCCCCCOc1ccc(-c2ccc(C(=O)O)cc2)cc1 | 246 to 250 °C
5 | COCC(C)NC1=NS(=O)(=O)c2cc(Cl)cnc2N1 (stereo not given) | 150 to 156 °C
6 | O=C(N[C@H]1CC[C@H](CCN2CCN(c3nccc4c3OCC4)CC2)CC1)c1ccc2ncccc2c1 | 212 °C
7 | O=C1Cn2nccc2-c2ccccc2N1 | 236 to 240 °C
8 | COc1cc(Cl)cc2c1CCC2 | 38 to 40 °C
9 | CCCCCCCCCCCCCCCCS(=O)(=O)OC1CNC1 | 91 to 97 °C
10 | CCOC(=O)CCc1cc2cc(O)ccc2s1 | 111 to 113 °C
11 | CN1c2ccccc2-c2nc3ccc(Cl)cc3c3cccc1c23 | 226 to 228 °C
12 | CN(C)C(=O)COc1cc(Cl)ccc1C(=O)O | 141 to 142 °C
13 | Cc1cc(Oc2cccc(C(F)(F)F)c2)nn1C(=O)Nc1cccc([N+](=O)[O-])c1 | 83 to 86 °C
14 | COC(=O)c1ccc(C=Cc2cnc3nc(NC(=O)C(C)(C)C)nc(O)c3c2)[nH]1 | > 260 °C
15 | CCOC(=O)c1c(N)c2cccnc2n(C2CCCCC2)c1=O | 172 to 175 °C
16 | COC(=O)c1snnc1C1CC1 | 47 °C
17 | Cc1ccc(NC(=O)c2ccc(O)c(N)c2)cc1C | 220 to 223 °C
18 | CC(C)c1nn(-c2ccc(C(F)(F)F)cc2)cc1CO | 84 to 85 °C
19 | CS(=O)(=O)C(=C1CN(C(c2ccccc2)c2ccccc2)C1)c1ccc(Cl)cc1 | 192 °C
20 | CCOP(=O)(CCN1CCC(N(NCCN2CCCC2)S(=O)(=O)c2ccc(Nc3nccc(Nc4ccc(F)cc4)n3)cc2)CC1)OCC | 85 °C

Row | Compound | melting point
21 | CC(c1oc2ccc(Br)cc2c(=O)c1-c1ccccc1)n1ncc2c(N)ncnc21 (stereo not given) | 239 to 240 °C
22 | O=C(O)C(Oc1ccccc1)c1ccc(Oc2ccccc2)cc1 (stereo not given) | 144 to 146 °C
23 | O=C(O)c1cc(N2C(=O)C3=C(CCCC3)C2=O)ccc1O | 240 °C
24 | Cc1c(Cl)cccc1S(=O)(=O)n1c(CCCC(=O)O)cc2nc(Cl)ccc21 | 127 to 128 °C
25 | CN1CCC(=C2c3c(ccn3C)CCn3cnnc32)CC1 | 214 °C
26 | COc1cc(C2c3cc4c(cc3C(NC3=CC(=O)N(Cc5ccc(F)cc5)C3=O)C3COC(=O)C23)OCO4)cc(OC)c1O[Si](C)(C)C(C)(C)C (stereo not given) | 182 to 184 °C
27 | O=S(=O)(Nc1cccc2c(O)cccc12)N1CCOCC1 | 220 to 223 °C
28 | N#Cc1cc2nc(O)c(O)nc2c2[nH]nnc12 | > 300 °C
29 | CC(C)(C)c1cc(C(O)C#Cc2ccc(C(=O)O)cc2)ccc1N1CCCC1 (stereo not given) | 150 °C
30 | CCCc1ccc(-c2cnc(C#N)c(C#N)n2)cc1 | 87 to 87.9 °C
31 | CCc1c(-c2ccccc2)c2c(c3c1[nH]c1ccc(O)cc13)C(=O)NC2=O | 190 to 196 °C
32 | CC(CO)C1CCC2C3CCC4=C(N)C(=O)CCC4(C)C3CCC12C (stereo not given) | 180 to 185 °C
33 | Clc1ccc(C=Cc2nc(CNc3ccc(CCCCn4ccnn4)cc3)co2)cc1 | 120 to 122 °C
34 | CCOC(=O)c1c(N)nn(-c2c(Cl)cc(C(F)(F)F)cc2Cl)c1N | 196 to 197 °C
35 | Cc1cc(C)cc(S(=O)(=O)n2c(CCC(=O)O)cc3cc(Cl)ccc32)c1 | 189 to 193 °C
36 | Cc1oc(-c2ccccc2)nc1CCc1ccc(C=CC=O)cc1 | 99 to 100 °C
37 | COC(=O)C1Cc2c([nH]c3ccccc23)C(c2ccc(Cl)cc2Cl)N1C(=O)CCl (stereo not given) | 106 to 109 °C
38 | N#CC1OC(COC(=O)c2ccccc2)C(OC(=O)c2ccccc2)C1OC(=O)c1ccccc1 (stereo not given) | 77 to 78 °C
39 | CC1(C)OCC(C(O)CNC(=O)CS(=O)(=O)Nc2ccc(F)c(C(F)(F)F)c2)O1 (stereo not given) | 144 to 146 °C
40 | CCCCc1cc2ccc(C(=O)O)cc2o1 | 102 to 104 °C
